68 compounds from PubChem BioAssay AID1159559 (GlaxoSmithKline (GSK), 2015) can be followed below.

This experiment concerns T. cruzi Tulahuen in NIH-3T3, beta-gal fluorescence, 4 d. The experiment can be described thus: anti-Chagas amastigote proliferation inhibitors – cell-based (AID 1159559).

Activity calls are given as the source filed them.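 Rule for the calls: active = compounds whose IC50 against parasite growth in infected mouse cells is below 50000 nM; inactive = the rest.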 Where only a bound is given, the exact number is not on record here.

A word on the IC50: it is the point on the concentration scale where inhibition reaches its midpoint. With `Cc1c([N+](=O)[O-])c(C(=O)Nc2sc3c(c2C#N)CCC(C)C3)nn1C` (stereo not drawn), the IC50 was 2500 nM.
`CC(C)c1nn(-c2nc(N)nc(-c3ccccn3)n2)c(N)c1C1CCCCC1`: the half-maximal inhibitory concentration (IC50) is 2000 nM.
`O=c1cc(CSc2ccc(Cl)cc2)nc(-c2ccccn2)[nH]1`: the IC50 is 1000 nM.
As to `CC(C)N(C(=O)CN1C(=O)C(N)C(=O)N(c2ccccc2)c2ccccc21)c1ccccc1` (stereo not drawn), the IC50 is 320 nM.
As to `COc1cc(Cl)c(C)cc1NC(=O)c1ccc([N+](=O)[O-])s1`, the IC50 was 630 nM.
The figure for `COc1ccc2ncc(F)c(CCN3CC[C@@H](NC(=O)c4cc5c(s4)CCC5)[C@@H](O)C3)c2n1` is 160 nM.
With `Clc1ccc(OCCN2CCCCC2c2cccnc2)c(Cl)c1` (stereo not drawn), the IC50 is 400 nM.
The figure for `COc1ccc(C(=O)NC2CCN(CCn3c(=O)ccc4ncc(F)cc43)CC2)cc1Cl` is 500 nM; for `O=C1CN(C(=O)c2cccc(Nc3ncc(-c4ccc5c(c4)OCO5)cn3)c2)CCN1` it is 1600 nM; for `COc1cccc(C(=O)[C@H]2C[C@@H]2CN(Cc2cccnc2)Cc2cccnc2)c1` it is 100 nM.
As for `CC(C)c1sc(Cl)nc1C(=O)NCCc1nc(C(=O)Nc2ccc3c(c2)OCO3)cs1`, the IC50 was 4000 nM.
The figure for `CN(Cc1ccc(F)cc1)c1ccc(OCC(=O)N2CCCCC2c2cccnc2)nn1` (stereo not drawn) is 320 nM.
Turning to `O=C(Cc1ccc2c(c1)CCC2)Nc1n[nH]c(-c2ccccn2)n1`, the IC50 was 10000 nM.
With `COc1ccc(OC)c2c(=O)c(Cc3ccccc3)c(C)[nH]c12`, the half-inhibitory concentration (IC50) is 200 nM.
Consider `CC(Cn1ccnc1)NC(=O)C=Cc1ccc(Cl)cc1` (stereo not drawn), for which the IC50 was 400 nM.
In the case of `CC(C)(C)c1csc(NC(=O)c2ccc([N+](=O)[O-])s2)n1`, the IC50 is 160 nM.
In the case of `Cc1sc(C)c(C(F)(F)F)c1CNCCCNc1cc(=O)c2ccccc2[nH]1` it was 790 nM; in that of `Cc1nn(-c2nc(N)nc(-c3ccccn3)n2)c(N)c1-c1ccccc1`, 4000 nM.
As for `Cc1ccccc1NS(=O)(=O)c1ccc2[nH]cc(C(=O)NC3CCCCC3)c(=O)c2c1`, the IC50 was 10000 nM.
For `COc1cc(-c2noc(CC#N)n2)ccc1OC(F)F`, the IC50 was 40000 nM.
As to `Cc1[nH]n2c(=O)c3c(nc2c1-c1ccc(Br)cc1)CCCC3`, the IC50 was 1000 nM.
On to `CC(=O)Nc1ccc(Nc2nccc(-c3cnn4ncccc34)n2)cc1C(F)(F)F`, for which the IC50 is 50 nM.
The figure for `CN1CCN(c2nc(-c3ccc(Cl)cc3)c3c(N)n(C)nc3n2)CC1` is 2000 nM; for `O=C1NCCn2ccc(Nc3nc(NC4CCC(O)CC4)ncc3Cl)c21` (stereo not drawn) it is 6300 nM.
For the compound `O=C(Cn1cnc2cc([N+](=O)[O-])ccc2c1=O)NCCc1ccc(Cl)cc1Cl`, the IC50 was 630 nM.
Consider `CN(C)CCN(C)Cc1ccc(F)cc1NS(=O)(=O)c1ccc(Cl)c(Cl)c1`, for which the 50% inhibitory concentration (IC50) is 1600 nM.
In the case of `FC(F)(F)c1cc(C2CCCN(Cc3c[nH]c4ccccc34)C2)nc2ncnn12` (stereo not drawn) it was 1600 nM; in that of `CCOC(=O)c1noc(N)c1-c1ccccc1`, > 50000 nM (inactive); in that of `Cn1ccnc1CN1CCc2[nH]cnc2C1c1ccccc1OCc1ccccc1` (stereo not drawn), 40000 nM.
The figure for `O=C(Nc1nc(-c2ccccn2)cs1)N1C[C@H]2C[C@@]2(c2ccccc2)C1` is 500 nM.
As to `COc1ccc2nccc([C@H](O)CN3CC[C@H](NC(=O)c4ccc(Br)cc4)[C@@H](O)C3)c2n1`, the IC50 was 250 nM.
For the compound `Cc1cccnc1NC(=O)c1cccc(OCc2c(C)noc2C)c1`, the IC50 was > 50000 nM (inactive).
For `Cc1ccc(S(=O)(=O)Nc2ccc(CN3CCN(C(=O)c4cccc(C#N)c4)CC3)cc2)cc1`, the IC50 was 500 nM.
In the case of `COc1ccc2ncc(=O)n(CCN3CCOC(CNCc4ccc(C(F)(F)F)cc4F)C3)c2n1` (stereo not drawn) it was 400 nM; in that of `CCCC(=O)N(Cc1ccccn1)c1nc2ccccc2s1`, 130 nM; in that of `O=C(NCc1ccc(Cl)cc1)C1CN(C(=O)c2ccc(F)cc2)CCS1` (stereo not drawn), 25000 nM.
With `COc1cccc(Nc2cc(C)nc(-c3ccccn3)n2)c1`, the IC50 was 3200 nM.
The figure for `CNS(=O)(=O)c1ccccc1Nc1nc(Nc2cc(C)nn2C)ncc1Cl` is 400 nM; for `Cc1cccnc1CN1CCN(CCCOc2ccc(-c3ccc(C(N)=O)cc3)cc2)CC1` it is 630 nM.
As for `Cc1[nH]nc(C(F)(F)F)c1NC(=O)CCn1cc(Cl)c([N+](=O)[O-])n1`, the IC50 was 7900 nM.
With `O=C(NCc1nnc2n1CCCCC2)c1ccc(-c2ccc(F)cc2)o1`, the concentration for half-maximal inhibition (IC50) is 1300 nM.
The figure for `CC(=O)Nc1ccc(-c2cnc(N)c(-c3nc4ccc(F)cc4[nH]3)c2)cc1` is 630 nM; for `COc1ccnc2[nH]cc(-c3cc(C(=O)N[C@H](CO)c4ccccc4)co3)c12` it is 1300 nM; for `NS(=O)(=O)c1ccc(Nc2ncc3cccc(OC4CCNCC4)c3n2)cc1` it is 1600 nM.
With `NC(=O)c1cc(NC(=O)c2ccccc2COc2ccccc2)ccc1Cl`, the IC50 is 40000 nM.
Turning to `COc1cc(NC(=O)Nc2cccc(CNC(=O)OC3CCCCC3)c2)ccc1-c1cnco1`, the 50% inhibitory concentration (IC50) was 1000 nM.
In the case of `CCOc1cc(NCCCN2CCN(C)CC2)c2ncccc2c1`, the IC50 is 1600 nM.
On to `C=CCN(Cc1cccs1)C(=O)CSc1nnc(-c2ccc3c(c2)OCO3)o1`, for which the IC50 is 6300 nM.
Consider `Cc1nc2c(-c3ncn[nH]3)cc(NC(=O)Cc3ccccc3)cn2c1C`, for which the IC50 is 1000 nM.
With `CC(C)n1c(-c2nonc2N)nc2cccc(OCCN3CCCC3)c21`, the IC50 is 10000 nM.
As to `O=c1[nH]c(NCCCNCc2cc(Br)cc(Br)c2)nc2ccsc12`, the IC50 is 630 nM.
As to `NC(=O)c1ccc(-c2cccc(OCCN3CCN(C4CCCCC4)CC3)c2)cc1`, the IC50 was 1600 nM.
With `Cc1nc2nc(C)c(Cc3ccc(C(C)C)cc3)c(=O)n2[nH]1`, the half-inhibitory concentration (IC50) is 500 nM.
On to `CN(Cc1ccccc1)Cc1nnnn1C1CCN(Cc2ccc(-n3ccnc3)cc2)CC1`, for which the IC50 is 400 nM.
`c1ccc2sc(Nc3nc4ncccc4[nH]3)nc2c1`: the IC50 is 1000 nM.
On to `CN(C)S(=O)(=O)c1cccc(C(=O)Nc2nc(-c3ccccn3)cs2)c1`, for which the IC50 is 1300 nM.
Regarding `CCOc1ccc(CN(C)Cc2nc(N)nc(Nc3ccc(C)cc3)n2)cc1`, the IC50 is 6300 nM.
Consider `CCC1Oc2cc(S(=O)(=O)N(C)CC(=O)N3CCc4ccccc4C3)c(C)cc2NC1=O` (stereo not drawn), for which the IC50 is 200 nM.
In the case of `COc1ccc(CNc2nsc3ccccc23)cc1OC` it was 6300 nM; in that of `O=C1CN(Cc2ccco2)C2CS(=O)(=O)CC2N1c1ccc(Cl)cc1` (stereo not drawn), > 50000 nM (inactive).
The figure for `O=C(c1ccc(O)c(Cl)c1)N1CCN(c2cnccn2)CC1` is > 50000 nM (inactive).
Turning to `CCc1nn(-c2ncc(F)c(NC(C)C)n2)c(N)c1C1CCCCC1`, the IC50 is 3200 nM.
For the compound `O=C(NCCNc1noc(-c2ccc([N+](=O)[O-])cc2)n1)c1ccc(Cl)cc1`, the IC50 is 2000 nM.
Turning to `O=C(NCc1ccncc1)c1ccccc1N1CCCN(C(=O)Cc2ccc(F)c(F)c2)CC1`, the IC50 was 130 nM.
With `CNc1cc(C)nc(C2CN(C(=O)c3n[nH]c4ccccc34)CCO2)c1` (stereo not drawn), the IC50 is 1300 nM.
Take `Cc1[nH]n2c(=O)c3c(nc2c1-c1ccc(Cl)cc1)CCCC3`: the IC50 is 400 nM.
On to `O=C(Nc1nc(-c2ccc(F)cc2)cs1)c1ccc([N+](=O)[O-])s1`, for which the IC50 is 200 nM.
Take `CC1(Oc2cncc(Cl)c2)CCN(Cc2cc3ccccc3[nH]2)C1` (stereo not drawn): the IC50 is 1000 nM.
